Test results from US6384236B1, “N-(aroyl)glycine hydroxamic acid derivatives and related compounds” (Pfizer Inc, priority 1995, dated 2002).

melting point: 156 to 168 °C
Structure (SMILES): COc1ccc(C(=O)NCC(=O)O)cc1OC1CCCC1 [Example 17]
